Assay results reported in PMC5218480 (PLoS ONE, 2017).

Tested on: MV-4-11 cells
Test: Gene expression microarray analysis (Affymetrix PrimeView) and GSEA
Format: cell-based, human
Parameters: RFU PODN (11730768_x_at) / Fold change /veh PODN (11730768_x_at) / RFU LINC00158 (11744669_a_at) / Fold change /veh LINC00158 (11744669_a_at) / RFU DUSP10 (11751237_a_at) / Fold change /veh DUSP10 (11751237_a_at) / RFU ID3 (11757404_x_at) / Fold change /veh ID3 (11757404_x_at) / RFU PLEKHG5 (11737974_s_at) / Fold change /veh PLEKHG5 (11737974_s_at) / RFU LRRC4B (11730491_at) / Fold change /veh LRRC4B (11730491_at) / RFU GIMAP4 (11747438_a_at) / Fold change /veh GIMAP4 (11747438_a_at) / RFU KRT8 (11758183_x_at) / Fold change /veh KRT8 (11758183_x_at) / RFU CNN1 (11734310_a_at) / Fold change /veh CNN1 (11734310_a_at) / RFU VPS37D (11726825_at) / Fold change /veh VPS37D (11726825_at) / RFU C10orf10 (11716522_x_at) / Fold change /veh C10orf10 (11716522_x_at) / RFU KIR2DL2 /// KIR2DL4 /// KIR2DL5A /// KIR2DL5B /// KIR2DS1 /// KIR2DS2 /// KIR2DS3 /// KIR2DS4 /// KIR3DL3 /// KIR3DL3 /// KIR3DS1 (11738374_at) / Fold change /veh KIR2DL2 /// KIR2DL4 /// KIR2DL5A /// KIR2DL5B /// KIR2DS1 /// KIR2DS2 /// KIR2DS3 /// KIR2DS4 /// KIR3DL3 /// KIR3DL3 /// KIR3DS1 (11738374_at) / RFU C1QL1 (11718748_at) / Fold change /veh C1QL1 (11718748_at) / RFU TMPRSS4 (11747572_a_at) / Fold change /veh TMPRSS4 (11747572_a_at) / RFU HAMP (11756126_x_at) / Fold change /veh HAMP (11756126_x_at) / RFU RNFT2 (11725882_a_at) / Fold change /veh RNFT2 (11725882_a_at) / RFU NR4A2 (11747474_a_at) / Fold change /veh NR4A2 (11747474_a_at) / RFU ABCC12 (11746883_a_at) / Fold change /veh ABCC12 (11746883_a_at) / RFU TMEM136 (11760407_x_at) / Fold change /veh TMEM136 (11760407_x_at) / RFU CLDN22 /// WWC2 (11732394_at) / Fold change /veh CLDN22 /// WWC2 (11732394_at) / RFU HLA-DPB1 (11760878_x_at) / Fold change /veh HLA-DPB1 (11760878_x_at) / RFU SPINT1 (11716480_a_at) / Fold change /veh SPINT1 (11716480_a_at) / RFU GAP43 (11754022_s_at) / Fold change /veh GAP43 (11754022_s_at) / RFU A4GNT (11735810_at) / Fold change /veh A4GNT (11735810_at) / RFU PRB3 (11715151_x_at) / Fold change /veh PRB3 (11715151_x_at) / RFU TUBB4B (11761932_at) / Fold change /veh TUBB4B (11761932_at) / RFU CAPN14 (11732068_a_at) / Fold change /veh CAPN14 (11732068_a_at) / RFU TMCC2 (11721928_a_at) / Fold change /veh TMCC2 (11721928_a_at) / RFU IRGQ (11745062_a_at) / Fold change /veh IRGQ (11745062_a_at) / RFU FAM174B (11720279_a_at) / Fold change /veh FAM174B (11720279_a_at) / RFU TMPRSS4 (11748680_a_at) / Fold change /veh TMPRSS4 (11748680_a_at) / RFU FAM212B (11763350_a_at) / Fold change /veh FAM212B (11763350_a_at) / RFU PLEKHG5 (11743358_a_at) / Fold change /veh PLEKHG5 (11743358_a_at) / RFU ZSCAN30 (11745921_a_at) / Fold change /veh ZSCAN30 (11745921_a_at) / RFU CMKLR1 (11741424_a_at) / Fold change /veh CMKLR1 (11741424_a_at) / RFU LOC101060620 /// MAPK8IP1 (11723275_at) / Fold change /veh LOC101060620 /// MAPK8IP1 (11723275_at) / RFU SPTSSB (11747773_x_at) / Fold change /veh SPTSSB (11747773_x_at) / RFU PRSS12 (11739890_at) / Fold change /veh PRSS12 (11739890_at) / RFU BIN1 (11741810_x_at) / Fold change /veh BIN1 (11741810_x_at) / RFU WNT11 (11732464_a_at) / Fold change /veh WNT11 (11732464_a_at) / RFU C10orf10 (11716521_a_at) / Fold change /veh C10orf10 (11716521_a_at) / RFU C5orf56 (11738089_at) / Fold change /veh C5orf56 (11738089_at) / RFU CYB561 (11721691_x_at) / Fold change /veh CYB561 (11721691_x_at) / RFU ANKRD19P (11752326_a_at) / Fold change /veh ANKRD19P (11752326_a_at) / RFU OR2T12 /// OR2T33 /// OR2T8 (11738714_s_at) / Fold change /veh OR2T12 /// OR2T33 /// OR2T8 (11738714_s_at) / RFU VCAN (11748164_a_at) / Fold change /veh VCAN (11748164_a_at) / RFU JSRP1 (11732532_at) / Fold change /veh JSRP1 (11732532_at) / RFU KRTAP10-11 (11738290_x_at) / Fold change /veh KRTAP10-11 (11738290_x_at) / RFU MYO3A (11730013_a_at) / Fold change /veh MYO3A (11730013_a_at) / RFU EBF3 (11725865_a_at) / Fold change /veh EBF3 (11725865_a_at) / RFU CAMK2N1 (11719241_x_at) / Fold change /veh CAMK2N1 (11719241_x_at) / RFU C5orf56 (11738088_a_at) / Fold change /veh C5orf56 (11738088_a_at) / RFU OLFML3 (11715873_a_at) / Fold change /veh OLFML3 (11715873_a_at) / RFU LOC100653217 /// NTM (11731650_a_at) / Fold change /veh LOC100653217 /// NTM (11731650_a_at) / RFU MAPK11 (11762145_a_at) / Fold change /veh MAPK11 (11762145_a_at) / RFU FIZ1 (11724087_x_at) / Fold change /veh FIZ1 (11724087_x_at) / RFU OASL (11726364_x_at) / Fold change /veh OASL (11726364_x_at) / RFU SOX15 (11748057_x_at) / Fold change /veh SOX15 (11748057_x_at) / RFU CD79A (11719716_a_at) / Fold change /veh CD79A (11719716_a_at) / RFU HIST1H1D (11736915_at) / Fold change /veh HIST1H1D (11736915_at) / RFU CASKIN2 (11723855_a_at) / Fold change /veh CASKIN2 (11723855_a_at) / RFU LOC730098 (11760151_x_at) / Fold change /veh LOC730098 (11760151_x_at) / RFU OR4N2 (11742367_at) / Fold change /veh OR4N2 (11742367_at) / RFU PRRT2 (11749266_a_at) / Fold change /veh PRRT2 (11749266_a_at) / RFU SNX32 (11753110_a_at) / Fold change /veh SNX32 (11753110_a_at) / RFU CDHR5 (11726645_a_at) / Fold change /veh CDHR5 (11726645_a_at) / RFU RCAN1 (11760418_a_at) / Fold change /veh RCAN1 (11760418_a_at) / RFU FAM167A (11723789_a_at) / Fold change /veh FAM167A (11723789_a_at) / RFU FAM26E (11764081_at) / Fold change /veh FAM26E (11764081_at) / RFU ISYNA1 (11749810_s_at) / Fold change /veh ISYNA1 (11749810_s_at) / RFU ACY1 (11761880_at) / Fold change /veh ACY1 (11761880_at) / RFU 11764098_at / Fold change /veh 11764098_at / RFU SAMD14 (11745864_x_at) / Fold change /veh SAMD14 (11745864_x_at) / RFU NPB (11741838_a_at) / Fold change /veh NPB (11741838_a_at) / RFU TMPRSS6 (11731388_a_at) / Fold change /veh TMPRSS6 (11731388_a_at) / RFU KRTAP10-2 (11738614_at) / Fold change /veh KRTAP10-2 (11738614_at) / RFU ARHGAP8 /// PRR5-ARHGAP8 (11727945_x_at) / Fold change /veh ARHGAP8 /// PRR5-ARHGAP8 (11727945_x_at) / RFU KRTAP5-7 /// NADSYN1 (11734609_at) / Fold change /veh KRTAP5-7 /// NADSYN1 (11734609_at) / RFU RASL12 (11751679_a_at) / Fold change /veh RASL12 (11751679_a_at) / RFU CDKN2B (11736163_a_at) / Fold change /veh CDKN2B (11736163_a_at) / RFU PRF1 (11729649_at) / Fold change /veh PRF1 (11729649_at) / RFU, ZNF638 /// ZNF638-IT1 / Fold change vs veh, ZNF638 /// ZNF638-IT1 / RFU, PANK3 / Fold change vs veh, PANK3 / RFU, SH3YL1 / Fold change vs veh, SH3YL1 / RFU, ZEB2 / Fold change vs veh, ZEB2 / RFU, NRIP1 / Fold change vs veh, NRIP1 / RFU, PTTG1IP / Fold change vs veh, PTTG1IP / RFU, CAPN2 / Fold change vs veh, CAPN2 / RFU, MED14 / Fold change vs veh, MED14 / RFU, SNORA58 / Fold change vs veh, SNORA58 / RFU, C1orf63 / Fold change vs veh, C1orf63 / RFU, LRRFIP1 / Fold change vs veh, LRRFIP1 / RFU, NDUFAF7 / Fold change vs veh, NDUFAF7 / RFU, SLC12A2 / Fold change vs veh, SLC12A2 / RFU, IBTK / Fold change vs veh, IBTK / RFU, ESF1 / Fold change vs veh, ESF1 / Fold change vs veh, TMEM50B / RFU, TAOK1 / Fold change vs veh, TAOK1 / RFU, ACBD3 / Fold change vs veh, ACBD3 / RFU, TMA16 / Fold change vs veh, TMA16 / RFU, RWDD3 / Fold change vs veh, RWDD3 / RFU, BCAT1 / Fold change vs veh, BCAT1 / RFU, EDEM3 / Fold change vs veh, EDEM3 / RFU, TMEM33 / Fold change vs veh, TMEM33 / RFU, WDR75 / Fold change vs veh, WDR75 / RFU, AHCTF1 / Fold change vs veh, AHCTF1 / RFU, TFRC / Fold change vs veh, TFRC / RFU, ZDHHC17 / Fold change vs veh, ZDHHC17 / RFU, NOM1 / Fold change vs veh, NOM1 / RFU, ARL8B / Fold change vs veh, ARL8B / RFU, ZBTB11 / Fold change vs veh, ZBTB11 / RFU, TAMM41 / Fold change vs veh, TAMM41 / RFU, KIAA1704 /// LOC100996395 / Fold change vs veh, KIAA1704 /// LOC100996395 / RFU, ING1 / Fold change vs veh, ING1 / RFU, TRMT61B / Fold change vs veh, TRMT61B / RFU, FUBP3 / Fold change vs veh, FUBP3 / RFU, TP53 / Fold change vs veh, TP53 / RFU, TNKS2 / Fold change vs veh, TNKS2 / RFU, ZFP14 / Fold change vs veh, ZFP14 / RFU, ACTR2 / Fold change vs veh, ACTR2 / RFU, PPP3R1 / Fold change vs veh, PPP3R1 / RFU, PIK3R1 / Fold change vs veh, PIK3R1 / RFU, HNRNPA1 / Fold change vs veh, HNRNPA1 / RFU, RNF170 / Fold change vs veh, RNF170 / RFU, ZNF28 / Fold change vs veh, ZNF28 / RFU, RNGTT / Fold change vs veh, RNGTT / RFU, OGT / Fold change vs veh, OGT / RFU, BRD1 / Fold change vs veh, BRD1 / RFU, MARS / Fold change vs veh, MARS / RFU, ZNF655 / Fold change vs veh, ZNF655 / RFU, FAHD1 / Fold change vs veh, FAHD1 / RFU, BDP1 / Fold change vs veh, BDP1 / RFU, LRRCC1 / Fold change vs veh, LRRCC1 / RFU, ARID1A / Fold change vs veh, ARID1A / RFU, ZNF146 / Fold change vs veh, ZNF146 / RFU, ZNF330 / Fold change vs veh, ZNF330 / RFU, GPN3 / Fold change vs veh, GPN3 / RFU, C9orf123 / Fold change vs veh, C9orf123 / RFU, N4BP2L2 / Fold change vs veh, N4BP2L2 / RFU, ARFIP1 / Fold change vs veh, ARFIP1 / RFU, FAM179B / Fold change vs veh, FAM179B / RFU, BCL10 / Fold change vs veh, BCL10 / RFU, UHRF1BP1L / Fold change vs veh, UHRF1BP1L / RFU, BET1 / Fold change vs veh, BET1 / RFU, CNOT2 / Fold change vs veh, CNOT2 / RFU, ZNF268 / Fold change vs veh, ZNF268 / Fold change vs veh, ZNF507 / RFU, DGCR2 / Fold change vs veh, DGCR2 / RFU, WDSUB1 / Fold change vs veh, WDSUB1 / Fold change vs veh, HSP90B1 /// MIR3652 / RFU, ADSS / Fold change vs veh, ADSS / RFU, GK / Fold change vs veh, GK / RFU, ZNF148 / Fold change vs veh, ZNF148 / RFU, TAF9 / Fold change vs veh, TAF9 / RFU, SLC1A5 / Fold change vs veh, SLC1A5 / RFU, SLMO2 / Fold change vs veh, SLMO2 / RFU, ABCC4 / Fold change vs veh, ABCC4 / RFU, LOC101060439 /// RAP1B / Fold change vs veh, LOC101060439 /// RAP1B / RFU, RFX7 / Fold change vs veh, RFX7 / RFU, GTPBP10 / Fold change vs veh, GTPBP10 / RFU, CNEP1R1 / Fold change vs veh, CNEP1R1 / RFU, BIVM-ERCC5 /// ERCC5 / Fold change vs veh, BIVM-ERCC5 /// ERCC5 / RFU, ILF3 / Fold change vs veh, ILF3 / RFU 11762660_at / Fold change /veh 11762660_at / RFU VCAN (11757783_s_at) / Fold change /veh VCAN (11757783_s_at) / RFU DDX43 (11728927_at) / Fold change /veh DDX43 (11728927_at) / RFU KRT8 (11758188_x_at) / Fold change /veh KRT8 (11758188_x_at) / RFU NKD1 (11759106_at) / Fold change /veh NKD1 (11759106_at) / RFU SRD5A1 (11742802_a_at) / Fold change /veh SRD5A1 (11742802_a_at) / RFU TPSAB1 /// TPSB2 (11721975_s_at) / Fold change /veh TPSAB1 /// TPSB2 (11721975_s_at) / RFU GSTM3 (11746129_a_at) / Fold change /veh GSTM3 (11746129_a_at) / RFU IL23R (11737362_x_at) / Fold change /veh IL23R (11737362_x_at) / RFU TMEM51 (11727254_a_at) / Fold change /veh TMEM51 (11727254_a_at) / RFU PIWIL2 (11732686_x_at) / Fold change /veh PIWIL2 (11732686_x_at) / RFU ORM1 (11744905_x_at) / Fold change /veh ORM1 (11744905_x_at) / RFU CCDC152 (11743942_at) / Fold change /veh CCDC152 (11743942_at) / RFU ECM1 (11717891_a_at) / Fold change /veh ECM1 (11717891_a_at) / RFU IL23R (11748794_a_at) / Fold change /veh IL23R (11748794_a_at) / RFU TNFAIP8L3 (11732012_x_at) / Fold change /veh TNFAIP8L3 (11732012_x_at) / RFU MBOAT4 (11741988_at) / Fold change /veh MBOAT4 (11741988_at) / RFU 11764193_at / Fold change /veh 11764193_at / RFU TMEM53 (11763286_at) / Fold change /veh TMEM53 (11763286_at) / RFU MAGEB2 (11727129_at) / Fold change /veh MAGEB2 (11727129_at) / RFU TMEM200A (11744735_a_at) / Fold change /veh TMEM200A (11744735_a_at) / RFU CCDC152 (11751479_a_at) / Fold change /veh CCDC152 (11751479_a_at) / RFU FAM211A (11726209_a_at) / Fold change /veh FAM211A (11726209_a_at) / RFU RGS16 (11746705_a_at) / Fold change /veh RGS16 (11746705_a_at) / RFU VCAN (11755009_s_at) / Fold change /veh VCAN (11755009_s_at) / RFU RHOB (11743442_s_at) / Fold change /veh RHOB (11743442_s_at) / RFU RGS16 (11720943_a_at) / Fold change /veh RGS16 (11720943_a_at) / RFU RGS16 (11720944_at) / Fold change /veh RGS16 (11720944_at) / RFU, VPS4B / Fold change vs veh, VPS4B / RFU, CREB1 / Fold change vs veh, CREB1 / RFU, DNAJC13 / Fold change vs veh, DNAJC13 / RFU, GNAQ / Fold change vs veh, GNAQ / RFU, CDK5R1 / Fold change vs veh, CDK5R1 / RFU, ZRANB3 / Fold change vs veh, ZRANB3 / RFU, CUL4A / Fold change vs veh, CUL4A / RFU, CCNY / Fold change vs veh, CCNY / RFU, UFL1 / Fold change vs veh, UFL1 / RFU, COG3 / Fold change vs veh, COG3 / RFU, DIAPH2 / Fold change vs veh, DIAPH2 / RFU, SKA2 / Fold change vs veh, SKA2 / RFU, AFF3 / Fold change vs veh, AFF3 / RFU, LMF1 / Fold change vs veh, LMF1 / RFU, IPO11 / Fold change vs veh, IPO11 / RFU, DFFB / Fold change vs veh, DFFB / RFU, FOXP1 / Fold change vs veh, FOXP1 / RFU, CARD8 / Fold change vs veh, CARD8 / RFU, STRN3 / Fold change vs veh, STRN3 / RFU, ADK / Fold change vs veh, ADK / RFU, RASSF2 / Fold change vs veh, RASSF2 / RFU, WIPF1 / Fold change vs veh, WIPF1 / RFU, LARP1B / Fold change vs veh, LARP1B / RFU, RASA1 / Fold change vs veh, RASA1 / RFU, RB1 / Fold change vs veh, RB1 / RFU, PPFIA1 / Fold change vs veh, PPFIA1 / RFU, MAT2A / Fold change vs veh, MAT2A / RFU, CCT5 / Fold change vs veh, CCT5 / RFU, WDR92 / Fold change vs veh, WDR92 / RFU, CUX1 / Fold change vs veh, CUX1 / RFU, TTC7A / Fold change vs veh, TTC7A / RFU, TMEM135 / Fold change vs veh, TMEM135 / RFU, DEPTOR / Fold change vs veh, DEPTOR / RFU, CPM / Fold change vs veh, CPM / RFU, DNAJB6 / Fold change vs veh, DNAJB6 / RFU, CACNA2D3 / Fold change vs veh, CACNA2D3 / RFU, DTX4 / Fold change vs veh, DTX4 / RFU, TFCP2 / Fold change vs veh, TFCP2 / RFU, GMCL1 /// GMCL1P1 / Fold change vs veh, GMCL1 /// GMCL1P1 / RFU, AEBP2 / Fold change vs veh, AEBP2 / RFU, SNHG1 /// SNORD22 /// SNORD25 /// SNORD26 /// SNORD27 /// SNORD28 /// SNORD29 /// SNORD31 / Fold change vs veh, SNHG1 /// SNORD22 /// SNORD25 /// SNORD26 /// SNORD27 /// SNORD28 /// SNORD29 /// SNORD31 / Fold change (Aza/veh), C12orf56 (ProbeSet 11735607_a_at) / Fold change (ACY-1035/veh), C12orf56 (ProbeSet 11735607_a_at) / Fold change (Aza/veh), FGFR1OP (ProbeSet 11751329_s_at) / Fold change (ACY-1035/veh), FGFR1OP (ProbeSet 11751329_s_at) / Fold change (Aza/veh), VPS36 (ProbeSet 11739960_a_at) / Fold change (ACY-1035/veh), VPS36 (ProbeSet 11739960_a_at) / RFU SYPL1 (11715823_x_at) / Fold change /veh SYPL1 (11715823_x_at) / RFU IGFBP7 (11715501_s_at) / Fold change /veh IGFBP7 (11715501_s_at) / RFU REEP3 (11722064_at) / Fold change /veh REEP3 (11722064_at) / RFU IGLL1 (11728026_x_at) / Fold change /veh IGLL1 (11728026_x_at): dose or concentration left out as unconfirmed
Conditions: MV-4-11 cells, 48 hours

Question: With Nc1ncn([C@@H]2O[C@H](CO)[C@@H](O)[C@H]2O)c(=O)n1 [azacitidine] as the molecule, how does the “Fold change /veh REEP3 (11722064_at)” value read?
Answer: Its value is 0.73.
